Reference: ChEMBL document CHEMBL5614394, “Novel pleuromutilin derivatives conjugated with phenyl-sulfide and boron-containing moieties as potent antibacterial agents against antibiotic-resistant bacteria” (Eur J Med Chem, 2024)
Values after ≈ are worked out from the molar mass of the structure shown. Active and inactive are the calls of the source. No cut-off for these calls is given here.

Legend:
[1] = Stability in human liver microsomes assessed as drug metabolism at 1 uM measured within 1 hrs in presence of NADPH by LC-MS analysis; assay type: ADME, Microsome; conditions: read-out: Drug metabolism
[2] = test system: Staphylococcus epidermidis; assay: Antibacterial activity against Staphylococcus epidermidis ATCC 12228 assessed as inhibition of visible growth of bacteria incubated for 24 hrs by CLSI protocol based broth-dilution method; assay type: functional
[3] = test system: Staphylococcus aureus; assay: Antibacterial activity against methicillin-resistant Staphylococcus aureus USA 300 assessed as number of colonies with prevalence of spontaneous mutation at 8 times of MIC incubated for 48 hrs by agar dilution assay; assay type: functional
[4] = test system: Enterococcus faecalis; assay: Antibacterial activity against Enterococcus faecalis ATCC 29212 assessed as inhibition of visible growth of bacteria incubated for 24 hrs by CLSI protocol based broth-dilution method; assay type: functional
[5] = test system: Staphylococcus aureus; assay: Antibacterial activity against methicillin-resistant Staphylococcus aureus USA 300 assessed as inhibition of bacterial growth at 1 times of MIC measured upto 24 hrs by time-kill kinetics assay; assay type: functional, organism-based
[6] = test system: Staphylococcus simulans; assay: Antibacterial activity against pleuromutilin-resistant Staphylococcus simulans isolate 55-1 harboring cfr+ genotype assessed as inhibition of visible growth of bacteria incubated for 24 hrs by CLSI protocol based broth-dilution method; assay type: functional
[7] = test system: Enterococcus faecalis; assay: Antibacterial activity against Enterococcus faecalis HB 24-4 assessed as inhibition of visible growth of bacteria incubated for 24 hrs by CLSI protocol based broth-dilution method; assay type: functional
[8] = Stability in rat liver microsomes assessed as drug metabolism at 1 uM measured within 1 hrs in presence of NADPH by LC-MS analysis; assay type: ADME, Microsome; conditions: read-out: Drug metabolism
[9] = test system: Staphylococcus aureus; assay: Antibacterial activity against Staphylococcus aureus ATCC 700788 assessed as inhibition of visible growth of bacteria incubated for 24 hrs by CLSI protocol based broth-dilution method; assay type: functional
[10] = test system: Enterococcus faecium; assay: Antibacterial activity against pleuromutilin-resistant Enterococcus faecium 18FJZ1-1 harboring (lsa(E)+) genotype assessed as inhibition of visible growth of bacteria incubated for 24 hrs by CLSI protocol based broth-dilution method; assay type: functional
[11] = test system: Acinetobacter baumannii; assay: Antibacterial activity against Acinetobacter baumannii ATCC 19606 assessed as inhibition of visible growth of bacteria incubated for 24 hrs by CLSI protocol based broth-dilution method; assay type: functional
[12] = test system: Staphylococcus aureus; assay: Antibacterial activity against Staphylococcus aureus ATCC 43300 assessed as inhibition of visible growth of bacteria incubated for 24 hrs by CLSI protocol based broth-dilution method; assay type: functional
[13] = Stability in mouse liver microsomes assessed as drug metabolism at 1 uM measured within 1 hrs in presence of NADPH by LC-MS analysis; assay type: ADME, Microsome; conditions: read-out: Drug metabolism
[14] = test system: Staphylococcus aureus; assay: Antibacterial activity against Staphylococcus aureus ATCC 33591 assessed as inhibition of visible growth of bacteria incubated for 24 hrs by CLSI protocol based broth-dilution method; assay type: functional
[15] = test system: Staphylococcus aureus; assay: Antibacterial activity against methicillin resistant Staphylococcus aureus USA 300 infected in peritonitis sepsis CD-1 mouse model assessed as mouse survival rate at 40 mg/kg, iv administered as double dose with 6 hrs interval and measured after 7 days relative to control; assay type: functional; conditions: USA 300, 168 h, time 7 day
[16] = test system: Staphylococcus aureus; assay: Antibacterial activity against Staphylococcus aureus ATCC 25923 assessed as inhibition of visible growth of bacteria incubated for 24 hrs by CLSI protocol based broth-dilution method; assay type: functional
[17] = test system: Staphylococcus aureus; assay: Antibacterial activity against Staphylococcus aureus ATCC 700699 assessed as inhibition of visible growth of bacteria incubated for 24 hrs by CLSI protocol based broth-dilution method; assay type: functional
[18] = test system: Staphylococcus epidermidis; assay: Antibacterial activity against methicillin-sensitive Staphylococcus epidermidis isolate 20-15 assessed as inhibition of visible growth of bacteria incubated for 24 hrs by CLSI protocol based broth-dilution method; assay type: functional
[19] = test system: Streptococcus pneumoniae; assay: Antibacterial activity against penicillin sensitive Streptococcus pneumoniae isolate 20-1 assessed as inhibition of visible growth of bacteria incubated for 24 hrs by CLSI protocol based broth-dilution method; assay type: functional
[20] = test system: Staphylococcus aureus; assay: Antibacterial activity against methicilin-resistant Staphylococcus aureus isolate 15-2 assessed as inhibition of visible growth of bacteria incubated for 24 hrs by CLSI protocol based broth-dilution method; assay type: functional
[21] = test system: Streptococcus pneumoniae; assay: Antibacterial activity against penicillin resistant Streptococcus pneumoniae isolate 20-3 assessed as inhibition of visible growth of bacteria incubated for 24 hrs by CLSI protocol based broth-dilution method; assay type: functional
[22] = test system: Streptococcus pneumoniae; assay: Antibacterial activity against penicillin resistant Streptococcus pneumoniae isolate 20-4 assessed as inhibition of visible growth of bacteria incubated for 24 hrs by CLSI protocol based broth-dilution method; assay type: functional
[23] = test system: Staphylococcus aureus; assay: Antibacterial activity against methicillin resistant Staphylococcus aureus USA 300 infected in peritonitis sepsis CD-1 mouse model assessed as mouse survival rate at 40 mg/kg, iv administered as single dose and measured after 7 days relative to control; assay type: functional; conditions: USA 300, 168 h, time 7 day
[24] = Acute toxicity in male CD-1 mouse assessed as effect on survival at 40 mg/kg, iv administered as single dose for 7 days; assay type: organism-based; conditions: in vivo, 168 h, time 7 day
[25] = test system: Staphylococcus aureus; assay: Bactericidal activity against methicillin-resistant Staphylococcus aureus USA 300 assessed as inhibition of bacterial growth at 8 times of MIC by time kill kinetics assay; assay type: functional, organism-based; conditions: time <= 24.0 hrs, TDE = time-dependent effect
[26] = test system: Enterococcus faecium; assay: Antibacterial activity against pleuromutilin-resistant Enterococcus faecium 18SC29-2 harboring (lsa(E)-) genotype assessed as inhibition of visible growth of bacteria incubated for 24 hrs by CLSI protocol based broth-dilution method; assay type: functional
[27] = test system: Streptococcus pneumoniae; assay: Antibacterial activity against penicillin resistant Streptococcus pneumoniae isolate 20-1 assessed as inhibition of visible growth of bacteria incubated for 24 hrs by CLSI protocol based broth-dilution method; assay type: functional
[28] = test system: Staphylococcus aureus; assay: Antibacterial activity against Staphylococcus aureus USA 300 assessed as inhibition of visible growth of bacteria incubated for 24 hrs by CLSI protocol based broth-dilution method; assay type: functional
[29] = test system: Escherichia coli; assay: Antibacterial activity against Escherichia coli ATCC 25922 assessed as inhibition of visible growth of bacteria incubated for 24 hrs by CLSI protocol based broth-dilution method; assay type: functional
[30] = test system: HUVEC; assay: Cytotoxicity against HUVEC cells incubated for 48 hrs by MTT assay; assay type: toxicity, cell-based; conditions: human
[31] = test system: Streptococcus pneumoniae; assay: Antibacterial activity against penicillin resistant Streptococcus pneumoniae isolate 20-2 assessed as inhibition of visible growth of bacteria incubated for 24 hrs by CLSI protocol based broth-dilution method; assay type: functional
[32] = test system: HEK293; assay: Cytotoxicity against HEK293 cells incubated for 48 hrs by MTT assay; assay type: toxicity, cell-based; conditions: human, hek293, 48 h
[33] = test system: Staphylococcus aureus; assay: Antibacterial activity against methicillin-resistant Staphylococcus aureus J1 harboring (lsa(E)+) genotype assessed as inhibition of visible growth of bacteria incubated for 24 hrs by CLSI protocol based broth-dilution method; assay type: functional
[34] = test system: Staphylococcus aureus; assay: Antibacterial activity against Staphylococcus aureus ATCC 29213 assessed as inhibition of visible growth of bacteria incubated for 24 hrs by CLSI protocol based broth-dilution method; assay type: functional
[35] = test system: Staphylococcus aureus; assay: Antibacterial activity against methicillin-resistant Staphylococcus aureus USA 300 assessed as number of colonies with prevalence of spontaneous mutation at 4 times of MIC incubated for 48 hrs by agar dilution assay; assay type: functional
[36] = test system: Staphylococcus epidermidis; assay: Antibacterial activity against methicillin-resistant Staphylococcus epidermidis isolate 20-28 assessed as inhibition of visible growth of bacteria incubated for 24 hrs by CLSI protocol based broth-dilution method; assay type: functional
[37] = test system: Staphylococcus epidermidis; assay: Antibacterial activity against methicillin-resistant Staphylococcus epidermidis isolate 20-26 assessed as inhibition of visible growth of bacteria incubated for 24 hrs by CLSI protocol based broth-dilution method; assay type: functional
[38] = test system: Staphylococcus epidermidis; assay: Antibacterial activity against methicillin-resistant Staphylococcus epidermidis isolate 20-27 assessed as inhibition of visible growth of bacteria incubated for 24 hrs by CLSI protocol based broth-dilution method; assay type: functional
[39] = test system: Staphylococcus epidermidis; assay: Antibacterial activity against methicillin-resistant Staphylococcus epidermidis isolate 20-29 assessed as inhibition of visible growth of bacteria incubated for 24 hrs by CLSI protocol based broth-dilution method; assay type: functional

| Compound | metabolised at 1 h, 1 µM [1] [%] | MIC [2] [µg/mL] | Activity [3] | MIC [4] [µg/mL] | MIC [7] [µg/mL] | metabolised at 1 h, 1 µM [8] [%] | MIC [9] [µg/mL] | MIC [11] [µg/mL] | MIC [12] [µg/mL] | metabolised at 1 h, 1 µM [13] [%] | MIC [14] [µg/mL] | MIC [16] [µg/mL] | MIC [17] [µg/mL] | MIC [18] [µg/mL] | MIC [19] [µg/mL] | MIC [20] [µg/mL] | MIC [27] [µg/mL] | MIC [28] [µg/mL] | MIC [29] [µg/mL] | MIC [34] [µg/mL] | further results |
| --- | --- | --- | --- | --- | --- | --- | --- | --- | --- | --- | --- | --- | --- | --- | --- | --- | --- | --- | --- | --- | --- |
| C=C[C@]1(C)C[C@@H](OC(=O)CSc2cccc(NC(=O)c3ccc4c(c3)B(O)OC4)c2)[C@]2(C)[C@H](C)CC[C@]3(CCC(=O)[C@H]32)[C@@H](C)[C@@H]1O | 51.1 | 0.016 (≈ 0.0248 µM) | <4.7 10^-11No_unit | 1 (≈ 1.55 µM) | 0.25 (≈ 0.387 µM) | 52.7 | ≤ 0.03 | > 64 | ≤ 0.03 | 67.2 | ≤ 0.03 | ≤ 0.03 | ≤ 0.03 | ≤ 0.03 | 0.06 (≈ 0.0929 µM) | ≤ 0.03 | 0.06 (≈ 0.0929 µM) | ≤ 0.03 | 32 (≈ 49.6 µM) | ≤ 0.016 | Activity [5]: Active; MIC [6]: 1 µg/mL (≈ 1.55 µM); MIC [10]: 2 µg/mL (≈ 3.1 µM); survival at 40 mg/kg [15]: 50%; MIC [21]: ≤ 0.03 µg/mL; MIC [22]: 0.06 µg/mL (≈ 0.0929 µM); survival at 40 mg/kg [23]: 17%; Activity [24]: Non-Toxic; Activity [25]: Tde; MIC [26]: ≤ 0.03 µg/mL; Activity [30]: Non-Toxic; MIC [31]: 0.06 µg/mL (≈ 0.0929 µM); Activity [32]: Non-Toxic; MIC [33]: 4 µg/mL (≈ 6.2 µM); Activity [35]: <4.7 10^-11No_unit |
| C=C[C@]1(C)C[C@@H](OC(=O)CSc2cccc(NC(=O)c3ccc(B(O)O)cc3)c2)[C@]2(C)[C@H](C)CC[C@]3(CCC(=O)[C@H]32)[C@@H](C)[C@@H]1O | 78.8 | 0.016 (≈ 0.0253 µM) | <4.7 10^-11No_unit | 0.25 (≈ 0.395 µM) | 0.25 (≈ 0.395 µM) | 84.6 | ≤ 0.03 | > 64 | ≤ 0.03 | 87.5 | ≤ 0.03 | ≤ 0.03 | ≤ 0.03 | ≤ 0.03 | ≤ 0.03 | ≤ 0.03 | 0.06 (≈ 0.0947 µM) | ≤ 0.03 | 64 (≈ 101 µM) | ≤ 0.016 | Activity [5]: Active; MIC [6]: 1 µg/mL (≈ 1.58 µM); MIC [10]: 0.5 µg/mL (≈ 0.789 µM); Activity [25]: Tde; MIC [26]: ≤ 0.03 µg/mL; MIC [33]: 2 µg/mL (≈ 3.16 µM); Activity [35]: <4.7 10^-11No_unit |
| C=C[C@]1(C)C[C@@H](OC(=O)CS[C@@H]2CC[C@@H](N)C[C@H]2O)[C@]2(C)[C@H](C)CC[C@]3(CCC(=O)[C@H]32)[C@@H](C)[C@@H]1O [LEFAMULIN] | 84 |  |  | 32 (≈ 63 µM) | 2 (≈ 3.94 µM) | 80.2 | 0.5 (≈ 0.985 µM) | > 64 | 0.25 (≈ 0.492 µM) | 41.4 | 0.25 (≈ 0.492 µM) | ≤ 0.25 | 0.25 (≈ 0.492 µM) | 0.25 (≈ 0.492 µM) | 1 (≈ 1.97 µM) | 0.5 (≈ 0.985 µM) | 1 (≈ 1.97 µM) | 0.25 (≈ 0.492 µM) | 8 (≈ 15.8 µM) | 0.25 (≈ 0.492 µM) | MIC [36]: 0.25 µg/mL (≈ 0.492 µM); MIC [37]: 0.5 µg/mL (≈ 0.985 µM); MIC [21]: 1 µg/mL (≈ 1.97 µM); MIC [22]: 1 µg/mL (≈ 1.97 µM); survival at 40 mg/kg [23]: 33%; MIC [38]: 0.25 µg/mL (≈ 0.492 µM); MIC [31]: 1 µg/mL (≈ 1.97 µM); MIC [39]: 0.125 µg/mL (≈ 0.246 µM) |
